According to patent US12318484B2 (priority 2016, dated 2025):

Tested on: IL-1B, IL-8, TLR7 and TLR8 mRNA
Format: cell-based, ferrets
Conditions: 100 μM, ferret whole blood

Question: CL075 was tested. Which “IL-1B, IL-8, TLR7 and TLR8 mRNA” value did it give?
Answer: significant increases
